Assay results taken from patent US8563503B2, “Antibiotic, its nucleotide sequence, methods of construction and uses thereof” (Protein Design Lab. Ltd., priority 2011, dated 2013).

Legend:
[1] = system: Staphylococcus aureus ATCC 29213; assay: MIC against the infecting strain (Table 2); type: cell-based; conditions: ATCC29213
Procedure: (§1) (3) Culture Solution • MH Broth Culture Solution: 25 g was added into […] distilled water, heat to dissolve, subpackaged, autoclaved at 116° C. for 20 minutes, and MH Solid Culture Medium, 36 g was added into 1000 ml distilled water, autoclaved at 116° C. for 20 minutes, used for drug sensitive test of Gram-positive and negative aerobic bacteria. • Blood culture solution for Enterococcus faecalis, which was prepared by adding defibration rabbit blood into the MH culture solution by 5-10% and cultured at 37° C. in 5% CO2 for 24 hours. 2. Experimental Methods (1) The Measurement of Minimum Inhibitory Concentration (MIC) • The Minimum Inhibitory Concentration (MIC) of PMC-SA1 was measured by Agar Doubling Dilution Method. The bacterium was inoculated on the surface of agar plate containing different concentration of drugs by multipoint inoculate instrument (Deneley A400). The bacterial content per point was 10^5 CFU/ml. After incubated at 37° C. for 18-24 hours, the result can be observed. The least concentration of drugs in plate culture solution without bacterium growing was Minimum Inhibitory Concentration (MIC) of the drug to the said bacteria. 3. Results

[2] = system: Staphylococcus aureus MRSA BAA-42; assay: MIC against the infecting strain (Table 2); type: cell-based; conditions: Staphylococcus aureus MRSA BAA-42
Procedure: as §1

E. coli 02-1-65 = assay: Protection test in vivo (intravenous injection) of infected mice; design: species or system Kungming mice; conditions: mice, infected with 3.8 × 10^5 cfu/ml i.p., drug once intravenous
Procedure: (§2) The drugs used in this embodiment were same with that used in embodiment 4.
(§3) The above drugs were dissolved and diluted by sterilized water, and the injection concentrations of each drug were 10 mg/kg, 5 mg/kg and 2.5 mg/kg.
(§4) After given intraperitoneal injection of fatal dose of above-mentioned bacteria, the mice of each drug experimental group respectively were given once intravenous injection of the drug by 10 mg, 5 mg, 2.5 mg/kg. The results were observed per 24 hours for 7-14 days. The positive result is mice's death.

Enterococcus ATCC 700802 = assay: as above; design: species or system Kungming mice; conditions: mice, infected with 7.0 × 10^6 cfu/ml i.p., drug once intravenous
Procedure: as §2, §3, §4

[3] = system: Staphylococcus aureus ATCC 29213; assay: as above; design: species or system Kungming mice; conditions: mice, infected with 4.6 × 10^5 cfu/ml i.p., drug once intravenous
Procedure: as §2, §3, §4

[4] = system: Staphylococcus aureus MRSA BAA-42; assay: as above; design: species or system Kungming mice; conditions: mice, infected with 6.5 × 10^5 cfu/ml i.p., drug once intravenous
Procedure: as §2, §3, §4

[5] = system: Multiple-drug resistance Pseudomonas aeruginosa (clinical separated strain 13280); assay: In vivo protection of mice infected by multiple-drug resistance Pseudomonas aeruginosa; design: species or system Kungming mice; conditions: fatal dose i.p.
Source text: (1) Drugs • PMC-PA, piperacillin, amikacin, ceftazidime, levofloxacin.
Multiple-drug resistance Pseudomonas aeruginosa (clinical separated strain 13280, isolated by laboratory bacteria room of West China Hospital)
Kungming mice (n=60), half male and half female, weighing 15-20 g were given intraperitoneal injection of multiple-drug resistance Pseudomonas aeruginosa, therein PMC-PA, piperacillin, amikacin, ceftazidime and levofloxacin experimental group were set respectively as 10 mice per group, while the control group was set as 10 mice per group. After given intraperitoneal injection of fatal dose of the bacterium, the mice in drug experimental groups respectively were given an intravenous injection of one kind of above drugs, the results were observed per 24 hours for continuous 10 days. The positive result was mouse's death.

[6] = system: methicillin-resistant Staphylococcus aureus ATCC BAA-42; assay: Bacteria growth curve (A595 nm), comparison of the novel antibiotics; type: cell-based; conditions: drug 5 μg/ml, 37° C., A595 nm per hour
Procedure: The following experiment was set for comparing bacteriostasis effects of 6 kinds of the novel antibiotics. The experimental bacteriaum was United States Standard Strain methicillin-resistant Staphylococcus aureus ATCC BAA-42. 5 microliter of bacteria solution (10^6 CFU/ml level bacterium amount) was added into 10 ml culture solution containing 1% peptone, 1% NaCl, 0.5% yeast extract, 0.5% glucose and 0.1% K2HPO4, total of 8 groups were prepared. The first group as control was added 0.3 M NaCl+50 mM boric acid buffer fluid by the same volume as that of antibiosis polypeptide liquid added in any experimental groups, the second group was added penicillin G sodium by 5 μg/ml, PMC-SA1, PMC-SA2, PMC-SA3, PMC-SA4, PMC-SE and PMC-PA were added in the other experimental groups with preservative fluid being 0.3 M NaCl+50 mM boric acid buffer fluid by 5 ug/ml.
The solution of above groups was put into 100 ml conical flask, 200 rpm, grew at 37° C. 100 μl was sampled per hour, and added onto 96-pore ELISA plate and measured bacteria grown cloudiness by spectrophotometer (A595 nm) color comparison. The bacteria growth curve was drawn up to compare the bacteriostasis efficacy of antibiosis polypeptide.

## Cc1nnc(SCC2=C(C(=O)[O-])N3C(=O)[C@@H](NC(=O)Cn4cnnn4)[C@H]3SC2)s1.[Na+] [Cefazolin, Cefazolin Sodium]
[1]
  MIC: 7 µg/mL
[2]
  MIC: 6 µg/mL
E. coli 02-1-65
  ED50: >30 mg/kg
Enterococcus ATCC 700802
  ED50: >10 mg/kg
[3]
  ED50: 29.11 mg/kg
[4]
  ED50: 9.04 mg/kg

## NCC[C@H](O)C(=O)N[C@@H]1C[C@H](N)[C@@H](O[C@H]2O[C@H](CN)[C@@H](O)[C@H](O)[C@H]2O)[C@H](O)[C@H]1O[C@H]1O[C@H](CO)[C@@H](O)[C@H](N)[C@H]1O [amikacin]
[5]; 5 mg/kg intravenous
  time in which mice were all dead: ≤ 4 days

## CC(C)(O/N=C(\C(=O)N[C@@H]1C(=O)N2C(C(=O)[O-])=C(C[n+]3ccccc3)CS[C@H]12)c1csc(N)n1)C(=O)O [ceftazidime]
[5]; 50 mg/kg intravenous
  survival rate of mice in 10 days: 20%

## C[C@H]1COc2c(N3CCN(C)CC3)c(F)cc3c(=O)c(C(=O)O)cn1c23 [levofloxacin]
[5]; 5 mg/kg intravenous
  survival rate of mice in 10 days: 40%

## CCN1CCN(C(=O)N[C@@H](C(=O)N[C@@H]2C(=O)N3[C@@H]2SC(C)(C)[C@@H]3C(=O)O)c2ccccc2)C(=O)C1=O [piperacillin]
[5]; 50 mg/kg intravenous
  time in which mice were all dead: ≤ 3 days

B1: PMC-SA4: Staphylococcus aureus pheromone AgrD IV linked to C-terminus of allosteric colicin Ia′; SEQ ID NO. 19; plasmid pBHC-SA4 (protein)
chain: SDPVRITNPAAESLGYDSDGREIMGVDIYLNPPRVDVFKGTPPAWSSFGNKTIWGGNEWVDDSPTRSDIEKRDKEITAYKNTLSAQQKENENKRTEAGKRLSAAIAAREKDENTLKTLRAGNADAADITRQEFRLLQAELREYGFRTEIAGYDALRLHTESRMLFADADSLRISPREARSLIEQAEKRQKDAQNADKKAADMLAEYERRKGILDTRLSELEKNGGAALAVLDAQQARLLGQQTRNDRAISEARNKLSSVTESLNTARNALTRAEQQLTQQKNTPDGKTIVSPEKFPGRSSTNHSIVVSGDPRFAGTIKITTSAVIDNRANLNYLLSHSGLDYKRNILNDRNPVVTEDVEGDKKIYNAEVAEWDKLRQRLLDARNKITSAESAVNSARNNLSARTNEQKHANDALNALLKEKENIRNQLSGINQKIAEEKRKQDELKATKDAINFTTEFLKSVSEKYGAKAEQLAREMAGQAKGKKIRNVEEALKTYEKYRADINKKINAKDRAAIAAALESVKLSDISSNLNRFSRGLGYAGKFTSLADWITEFGKAVRTENWRPLFVKTETIIAGNAATALVALVFSILTGSALGIIGYGLLMAVTGALIDESLVEKANKFWGIYSTCYFIM
modifications: The peptide of PMC-SA4
notes: Staphylococcus aureus pheromone AgrD IV linked to C-terminus of allosteric colicin Ia′; 19; plasmid pBHC-SA4
[6]
  bacteriostasis effect on growth of methicillin-resistant Staphylococcus aureus (bacteria growth curve): less better

B2: PMC-SA3: Staphylococcus aureus pheromone AgrD III linked to C-terminus of allosteric colicin Ia′; SEQ ID NO. 17; plasmid pBHC-SA3 (protein)
chain: SDPVRITNPAAESLGYDSDGREIMGVDIYLNPPRVDVFKGTPPAWSSFGNKTIWGGNEWVDDSPTRSDIEKRDKEITAYKNTLSAQQKENENKRTEAGKRLSAAIAAREKDENTLKTLRAGNADAADITRQEFRLLQAELREYGFRTEIAGYDALRLHTESRMLFADADSLRISPREARSLIEQAEKRQKDAQNADKKAADMLAEYERRKGILDTRLSELEKNGGAALAVLDAQQARLLGQQTRNDRAISEARNKLSSVTESLNTARNALTRAEQQLTQQKNTPDGKTIVSPEKFPGRSSTNHSIVVSGDPRFAGTIKITTSAVIDNRANLNYLLSHSGLDYKRNILNDRNPVVTEDVEGDKKIYNAEVAEWDKLRQRLLDARNKITSAESAVNSARNNLSARTNEQKHANDALNALLKEKENIRNQLSGINQKIAEEKRKQDELKATKDAINFTTEFLKSVSEKYGAKAEQLAREMAGQAKGKKIRNVEEALKTYEKYRADINKKINAKDRAAIAAALESVKLSDISSNLNRFSRGLGYAGKFTSLADWITEFGKAVRTENWRPLFVKTETIIAGNAATALVALVFSILTGSALGIIGYGLLMAVTGALIDESLVEKANKFWGIYINCDFLL
modifications: The peptide of PMC-SA3
notes: Staphylococcus aureus pheromone AgrD III linked to C-terminus of allosteric colicin Ia′; 17; plasmid pBHC-SA3
[6]
  bacteriostasis effect on growth of methicillin-resistant Staphylococcus aureus (bacteria growth curve): still less better

B3: PMC-SA2: Staphylococcus aureus pheromone AgrD II linked to C-terminus of allosteric colicin Ia′; SEQ ID NO. 15; plasmid pBHC-SA2 (protein)
chain: SDPVRITNPAAESLGYDSDGREIMAVDIYLNPPRVDVFKGTPPAWSSFGNKTIWGGNEWVDDSPTRSDIEKRDKEITAYKNTLSAQQKENENKRTEAGKRLSAAIAAREKDENTLKTLRAGNADAADITRQEFRLLQAELREYGFRTEIAGYDALRLHTESRMLFADADSLRISPREARSLIEQAEKRQKDAQNADKKAADMLAEYERRKGILDTRLSELEKNGGAALAVLDAQQARLLGQQTRNDRAISEARNKLSSVTESLNTARNALTRAEQQLTQQKNTPDGKTIVSPEKFPGRSSTNHSIVVSGDPRFAGTIKITTSAVIDNRANLNYLLSHSGLDYKRNILNDRNPVVTEDVEGDKKIYNAEVAEWDKLRQRLLDARNKITSAESAVNSARNNLSARTNEQKHANDALNALLKEKENIRNQLSGINQKIAEEKRKQDELKATKDAINFTTEFLKSVSEKYGAKAEQLAREMAGQAKGKKIRNVEEALKTYEKYRADINKKINAKDRAAIAAALESVKLSDISSNLNRFSRGLGYAGKFTSLADWITEFGKAVRTENWRPLFVKTETIIAGNAATALVALVFSILTGSALGIIGYGLLMAVTGALIDESLVEKANKFWGIGVNACSSLF
modifications: The peptide of PMC-SA2
notes: Staphylococcus aureus pheromone AgrD II linked to C-terminus of allosteric colicin Ia′; 15; plasmid pBHC-SA2
[6]
  bacteriostasis effect on growth of methicillin-resistant Staphylococcus aureus (bacteria growth curve): still less better
